Tested on: A. baumanii 13305
Assay: MIC by agar dilution (CLSI)
Format: cell-based
Protocol: In a typical study, overnight grown bacterial cultures were diluted appropriately and inoculated on the agar media containing doubling dilutions of composition or pharmaceutically active ingredients disclosed herein. Observation for growth or no growth was performed after 16-20 hours of incubation at 35±2° C. in ambient air. The overall procedure was performed as per Clinical and Laboratory Standards Institute (CLSI) recommendations (Clinical and Laboratory Standards Institute (CLSI), performance Standards for Antimicrobial Susceptibility Testing, 20th Informational Supplement, M 100-S20, Volume 30, No. 1, 2010).

MIC of cefepime in presence of Sulbactam (4 to 8 mcg/ml): 4 µg/mL
SMILES: CO/N=C(\C(=O)N[C@@H]1C(=O)N2C(C(=O)[O-])=C(C[N+]3(C)CCCC3)CS[C@H]12)c1csc(N)n1 [Cefepime]

Source: patent US9744160B2, “Pharmaceutical compositions comprising sulbactam and beta-lactamase inhibitor” (WOCKHARDT LIMITED, priority 2011, dated 2017)
